Experimental data reported in US20230279379A1, “METHODS AND MICROFLUIDIC DEVICE FOR PRODUCING EXTRACELLULAR VESICLES” (THE BOARD OF TRUSTEES OF THE UNIVERSITY OF ILLINOIS, priority 2022, published 2023).

Assays:
Format in all cases: cell-based
Primary human MSCs = test: EV secretion per cell from MSCs on hydrogel substrates, nanoparticle tracking analysis; conditions: 5 μM CK869; hydrogels
Method: Cell Seeding on Hydrogels. Hydrogel discs were placed in ultra-low binding polystyrene well plates (Corning) to ensure cells attach to hydrogels and not the plate surface. Hydrogels were washed with Hank's buffered salt solution (HBSS, Thermo Fisher Scientific) for at least 3 days before seeding cells. Cells were seeded at a low density (25 cells/mm^2). After seeding, hydrogels were washed thoroughly to remove unattached cells. Drug treatments of 3 μM MnCl2 (Thermo Fisher Scientific), 200 nM EMD 121974 sold under the tradename Cilengitide® (Cayman) and 5 μM CK869 (Cayman) were applied during and after cell adhesion to substrates. To evaluate the number of live cells seeded on substrates, cells were detached by incubating with a natural enzyme mixture with proteolytic and collagenolytic enzyme activity sold under the tradename ACCUTASE® Cell Detachment Solution (Innovative Cell Technologies, Inc.) for 10 minute at 37° C. Cells were then washed by centrifugation and directly added to HBSS containing calcein AM (1:2000; Biotium), ethidium bromide (1:2000; Thermo Fisher Scientific), and a predefined number of allophycocyanin (APC) beads (BD). After incubation at room temperature (RT) for 10 minutes, the samples were analyzed for live and dead cell number by flow cytometry.
Particle Size and Number Characterization. Particle size and number were obtained using Nanoparticle Tracking Analysis 3.2 (NTA) via NanoSight NS300 (Malvern) using a 405 nm laser. Samples were introduced by syringe pump at a rate 100 μL/min. Three thirty-second videos were acquired using camera level 14 followed by detection threshold 7. Camera focus, shutter, blur, minimum track length, minimum expected particle size and maximum jump length were set automatically by the software. Samples were diluted as needed to maintain particles per video from 100-2000. To ensure specificity, all samples were tested as compared to appropriate blank conditions.
To test the effect of substrate mechanics on EV secretion from MSCs, hydrogel substrates were engineered which were composed of alginate polymer conjugated with the cell adhesion peptide Arg-Gly-Asp (RGD) that binds primarily to αvβ3 and α5β1 integrins. Alginate-RGD hydrogels can be formed either covalently through adipic acid dihydrazide or physically through divalent cations, resulting in elastic or stress-relaxing hydrogels, respectively. For both types of hydrogels, elastic modulus (Young's modulus, E) of ˜3 kPa ‘soft’ and E ˜20 kPa ‘stiff’ were considered values that represent a physiologically relevant range of substrate elasticity for MSC mechanosensing, while E is ˜0.1 GPa for conventional plastic substrates. Primary human bone marrow MSCs were allowed to adhere to substrates for 24 hours followed by washout and collection of the serum-free conditioned medium from MSCs after 24 hours. After centrifugation of the medium at 10,000 g to remove cell, apoptotic, and larger particle fractions, particles remaining in the medium were analyzed by nanoparticle tracking analysis and normalized to the number of live adhered cells counted by flow cytometry (see Methods). MSCs were seeded at low density (˜25 cells/mm^2) to avoid potential effects from cell-cell interactions. […] Thus, focus was placed on the EVs remaining in the supernatant after the 10,000 g centrifugation. For these EVs, the particle size distribution remained similar across different substrates with median diameter ˜120 nm (FIG. 1B). […] Moreover, EVs from different substrates expressed similar levels of late endosomal markers CD63 and CD9. Importantly, levels of ribosomal RNA (rRNA) in particle preparations were similar across hydrogels or plastic substrates, and rRNA as a percentage of total RNA was lower than that found in untreated MSCs or particles derived from H2O2-treated apoptotic MSCs, ruling out apoptosis as a potential factor of increased EV secretion on the soft hydrogel. […]

[1] = test system: membrane-cytoskeleton attachment in MSCs; test: Force for membrane tether formation by AFM; conditions: CK869 treatment for 2 hours; within 4 hours of cell adhesion
Method: Measurement of Force for Membrane Tether Formation by Atomic Force Microscopy (AFM). Membrane tethering force was measured by using 3D-BIO AFM (Asylum Research, Oxford Instruments) with TR400PSA cantilevers (OTR4; spring constant=30 pN/nm). Indentation depth for each measurement was 4 μm with a velocity of 2 μm/s, and the force curve for each measurement was recorded by the AFM software (AR14). For each cell, 25-50 force curves were analyzed. In force mode, the piezotranducer (PZT) was set to drive the cantilever to approach, touch, make an indentation, and retract over a predefined distance in the optical axis perpendicular to the cell surface. The force curve was generated from the recorded vertical-axis movement of the PZT and the deflection of the cantilever with a known dimension and a spring constant. In the force curve representing the retraction of the cantilever from a cell, a sudden release of force occurred at the rupture of a membrane tether was quantified via a custom MATLAB program.

F-actin in MSCs = test: Confocal imaging of F-actin in cells on hydrogels; conditions: CK869 for 2 hours; cell adhesion for 4 hours
Method: Sample Preparation for Imaging of F-Actin in Cells on Hydrogels. To prepare samples for F-actin imaging, glass bottom dishes (No 0., 35 mm; MatTek) were silanized, and a thin layer of PEG-DA hydrogel with varied elasticity was formed as described above. After cell seeding on hydrogels and culturing cells in the presence of DMSO or CK869, cells were permeabilized with 0.0015% saponin (Sigma) in a cytoskeleton buffer (10 mM MES, pH 6.0, 150 mM NaCl, 5 mM EGTA, 5 mM glucose, and 5 mM MgCl2) for 4 minutes at room temperature. The samples were then washed with the cytoskeleton buffer 3 times and fixed with 4% paraformaldehyde in the cytoskeleton buffer for 20 minutes at room temperature. After washing 3 times with the cytoskeleton buffer, the samples were reduced in 0.1% sodium borohydride in PBS for 20 minutes at room temperature. To label F-actin in cells, the samples were stained with a fluorescent stain sold under the tradename ALEXA FLUOR® 488 phalloidin (1:1000; Cayman) for confocal imaging or ALEXA FLUORO 647 phalloidin (1:10000; Cayman) for super-resolution imaging in PBS with 3% BSA for 40 minutes at room temperature. The samples were washed 3 times with PBS prior to imaging.
Confocal Imaging of F-actin. […] A mean projection image was created from each confocal stack, and average intensity ALEXA FLUOR® 488 phalloidin per cell was analyzed by ImageJ (NIH). […]

With `COc1ccc(N2C(=O)CSC2c2cccc(Br)c2)c(OC)c1` (stereo not drawn) [CK869] the “EV secretion compared to DMSO” value (Primary human MSCs) was “significantly increased EV secretion”, the “force of membrane tether formation” value [1] was “slightly decreased tethering on the soft hydrogel” and the “mean intensity of phalloidin-labelled F-actin signal per cell” value (F-actin in MSCs) was “decrease the signal intensity on both substrates”.
